According to publication PMC8095115, “Dual regulation of TRPV1 channels by phosphatidylinositol via functionally distinct binding sites” (The Journal of Biological Chemistry, 2021):

Experiments:
TRPV1 [1] = molecular target: TRPV1 (Rattus norvegicus, UniProt O35433); test: excised inside-out patch clamp, Xenopus oocytes; partial inhibition with PtdIns([…])P2, partial activation without it; assay type: cell-based; conditions: read-out: % inhibition at 50 μM
TRPV1 [2] = molecular target: TRPV1 (Rattus norvegicus, UniProt O35433, D509A); test: excised inside-out patch clamp, Xenopus oocytes; assay type: cell-based
TRPV1 (Rattus norvegicus, UniProt O35433, D509A), sequence (O35433 whole entry D509A): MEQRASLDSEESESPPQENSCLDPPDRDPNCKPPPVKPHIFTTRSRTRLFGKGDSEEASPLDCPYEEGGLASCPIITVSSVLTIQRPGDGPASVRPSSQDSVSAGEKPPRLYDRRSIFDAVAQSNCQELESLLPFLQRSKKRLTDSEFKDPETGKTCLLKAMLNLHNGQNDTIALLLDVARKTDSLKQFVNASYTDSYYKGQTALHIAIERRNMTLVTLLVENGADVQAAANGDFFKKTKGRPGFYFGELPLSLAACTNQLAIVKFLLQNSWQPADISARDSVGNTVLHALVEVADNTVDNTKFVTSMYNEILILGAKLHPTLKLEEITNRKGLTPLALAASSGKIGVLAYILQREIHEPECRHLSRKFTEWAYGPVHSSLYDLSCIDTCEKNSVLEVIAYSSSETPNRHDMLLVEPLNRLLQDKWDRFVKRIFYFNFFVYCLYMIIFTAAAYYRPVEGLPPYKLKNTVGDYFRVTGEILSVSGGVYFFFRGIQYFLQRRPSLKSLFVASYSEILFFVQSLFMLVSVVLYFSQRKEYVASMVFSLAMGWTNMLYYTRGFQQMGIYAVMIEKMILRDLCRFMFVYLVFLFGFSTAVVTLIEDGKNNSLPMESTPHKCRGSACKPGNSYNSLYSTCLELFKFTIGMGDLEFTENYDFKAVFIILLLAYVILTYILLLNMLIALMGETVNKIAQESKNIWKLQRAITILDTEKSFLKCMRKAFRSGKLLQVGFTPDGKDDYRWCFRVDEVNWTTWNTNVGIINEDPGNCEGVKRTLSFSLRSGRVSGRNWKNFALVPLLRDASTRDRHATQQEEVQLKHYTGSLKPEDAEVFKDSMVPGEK

TRPV1 (Rattus norvegicus, UniProt O35433), sequence (O35433 whole entry): as the sequence (O35433 whole entry D509A) above, with A509D counted along it

For `CCCCCCCC(=O)OC[C@H](COP(=O)(O)O[C@@H]1[C@H](O)[C@H](O)[C@@H](O)[C@H](O)[C@H]1O)OC(=O)CCCCCCC` [diC8 PtdIns], the inhibition at 50 µM (TRPV1 [1]) was about 50% and the “excised inside-out patch clamp, Xenopus oocytes” value (TRPV1 [2]) was “The D509A mutant on the other hand was clearly inhibited by PtdIns”.
